System: cancer cell lines of Table 2
Assay: Multiplexed cytotoxicity assay: apoptosis (activated caspase-3; Cal_X2, Cal_X5, Max_Fold_Change)
Format: cell-based
Protocol: Cells are grown in RPMI1640, 10% FBS, 2 mM L-alanyl-L-Glutamine, 1 mM Na pyruvate or a special medium in a humidified atmosphere of 5% CO2 at 37° C. Cells are seeded into 384-well plates and incubated in a humidified atmosphere of 5% CO2 at 37° C. Compounds are added 24 h post cell seeding. At the same time, a time zero untreated cell plate is generated. After a 72 hour incubation period, cells are fixed and stained with fluorescently labeled antibodies and nuclear dye to allow visualization of nuclei, apoptotic cells and mitotic cells. Apoptotic cells are detected using an anti-active caspase-3 antibody. Mitotic cells are detected using an anti phospho-histone-3 antibody. Compounds are serially diluted 3.16-fold and assayed over 10 concentrations in a final assay concentration of 0.1% DMSO from the highest test concentration of 10 μM. Automated fluorescence microscopy was carried out using a Molecular Devices ImageXpress Micro XL high-content imager, and images are collected with a 4× objective.
The activated caspase-3 marker labels cells from early to late stage apoptosis. Concentrations of test compound that cause a 5-fold induction in the caspase-3 signal (Cal_X5) indicate significant apoptosis induction. The maximal induction of caspase 3 by compound in comparison with DMSO control is reported as Max_Fold_Change.
In Another Experiment, Cells were Grown in RPMI1640, 10% FBS, 2 mM L-alanyl-L-Glutamine, 1 mM Na pyruvate or a special medium in a humidified atmosphere of 5% CO2 at 37° C. Cells were seeded into 384-well plates and incubated in a humidified atmosphere of 5% CO2 at 37° C. Compounds were added 24 h post cell seeding. At the same time, a time zero untreated cell plate was generated. After a 72 hour incubation period, cells were fixed and stained with fluorescently labeled antibodies and nuclear dye to allow visualization of nuclei, apoptotic cells and mitotic cells. Apoptotic cells were detected using an anti-active caspase-3 antibody. Mitotic cells were detected using an anti phospho-histone-3 antibody. Compounds were serially diluted 3.16-fold and assayed over 10 concentrations in a final assay concentration of 0.1% DMSO from the highest test concentration of 10 μM. Automated fluorescence microscopy was carried out using a Molecular Devices ImageXpress Micro XL high-content imager, and images were collected with a 4× objective.
The activated caspase-3 marker labels cells from early to late stage apoptosis. Concentrations of test compound that cause a 2-fold (Cal-X2) or 5-fold induction in the caspase-3 signal (Cal_X5) indicated significant apoptosis induction. The maximal induction of caspase 3 by compound in comparison with DMSO control was reported as Max_Fold_Change.

Compound: C[C@]1(C(N)=O)CC[C@@H](n2c(Nc3c(Cl)cc(Cl)cc3Cl)nc3cnc(N[C@@H]4CCOC[C@H]4F)nc32)CC1 [Compound 1, cis-4-[2-{[(3S,4R)-3-fluorooxan-4-yl]amino}-8-(2,4,6-trichloroanilino)-9H-purin-9-yl]-1-methyl cyclohexane-1-carboxamide]
- CalX2 (HS611T, Lymphoma): 2.8507 µM
- CalX5 (HS611T, Lymphoma): 10 µM
- Max fold change (HS611T, Lymphoma): 3.84
- CalX2 (HS688AT, Skin, Melanoma): 10 µM
- CalX5 (HS688AT, Skin, Melanoma): 10 µM
- Max fold change (HS688AT, Skin, Melanoma): 1.61
- CalX2 (HS695T, Skin, Melanoma): 0.0253 µM
- CalX5 (HS695T, Skin, Melanoma): 0.0727 µM
- Max fold change (HS695T, Skin, Melanoma): 22.05
- CalX2 (HS852T, Skin, Melanoma): 0.05 µM
- CalX5 (HS852T, Skin, Melanoma): 0.234 µM
- Max fold change (HS852T, Skin, Melanoma): 6.51
- CalX2 (HT1197, Bladder): 0.1601 µM
- CalX5 (HT1197, Bladder): 10 µM
- Max fold change (HT1197, Bladder): 4.16
- CalX2 (HT1376, Bladder): 0.0524 µM
- CalX5 (HT1376, Bladder): 0.167 µM
- Max fold change (HT1376, Bladder): 10.87
- CalX2 (HT, Lymphoma): 8.6354 µM
- CalX5 (HT, Lymphoma): 10 µM
- Max fold change (HT, Lymphoma): 2.44
- CalX2 (HUCCT1, Liver): 0.0222 µM
- CalX5 (HUCCT1, Liver): 0.0406 µM
- Max fold change (HUCCT1, Liver): 11.54
- CalX2 (HUH6CLONE5, Liver): 0.0631 µM
- CalX5 (HUH6CLONE5, Liver): 0.302 µM
- Max fold change (HUH6CLONE5, Liver): 8.25
- CalX2 (J82, Bladder): 2.4365 µM
- CalX5 (J82, Bladder): 10 µM
- Max fold change (J82, Bladder): 3.17
- CalX2 (JEKO1, Lymphoma): 4.3369 µM
- CalX5 (JEKO1, Lymphoma): 10 µM
- Max fold change (JEKO1, Lymphoma): 3.11
- CalX2 (JIYOYE, Lymphoma): 4.4004 µM
- CalX5 (JIYOYE, Lymphoma): 5.35 µM
- Max fold change (JIYOYE, Lymphoma): 11.1
- CalX2 (JRT3T35, Leukemia): 2.6364 µM
- CalX5 (JRT3T35, Leukemia): 3.8 µM
- Max fold change (JRT3T35, Leukemia): 14.26
- CalX2 (JURKAT, Leukemia): 1.6173 µM
- CalX5 (JURKAT, Leukemia): 3.28 µM
- Max fold change (JURKAT, Leukemia): 14.48
- CalX2 (K562, Leukemia): 2.9298 µM
- CalX5 (K562, Leukemia): 4.86 µM
- Max fold change (K562, Leukemia): 51.89
- CalX2 (KG1, Leukemia): 2.5811 µM
- CalX5 (KG1, Leukemia): 10 µM
- Max fold change (KG1, Leukemia): 2.5
- CalX2 (KU812, Leukemia): 0.03 µM
- CalX5 (KU812, Leukemia): 8.02 µM
- Max fold change (KU812, Leukemia): 5.63
- CalX2 (L428, Lymphoma): 4.2384 µM
- CalX5 (L428, Lymphoma): 5.88 µM
- Max fold change (L428, Lymphoma): 7.51
- CalX2 (MC116, Lymphoma): 2.8763 µM
- CalX5 (MC116, Lymphoma): 5.18 µM
- Max fold change (MC116, Lymphoma): 9.46
- CalX2 (MEG01, Leukemia): 0.5718 µM
- CalX5 (MEG01, Leukemia): 10 µM
- Max fold change (MEG01, Leukemia): 2.77
- CalX2 (MHHPREB1, Leukemia): 5.1142 µM
- CalX5 (MHHPREB1, Leukemia): 7.66 µM
- Max fold change (MHHPREB1, Leukemia): 11.43
- CalX2 (MOLT3, Leukemia): 5.88 µM
- CalX5 (MOLT3, Leukemia): 10 µM
- Max fold change (MOLT3, Leukemia): 3.63
- CalX2 (MOLT16, Leukemia): 2.4102 µM
- CalX5 (MOLT16, Leukemia): 4.97 µM
- Max fold change (MOLT16, Leukemia): 8.06
- CalX2 (MV411, Leukemia): 0.0933 µM
- CalX5 (MV411, Leukemia): 1.15 µM
- Max fold change (MV411, Leukemia): 8.12
- CalX2 (MX1, Leukemia): 1.1016 µM
- CalX5 (MX1, Leukemia): 10 µM
- Max fold change (MX1, Leukemia): 3.78
- CalX2 (NALM6, Leukemia): 0.1241 µM
- CalX5 (NALM6, Leukemia): 10 µM
- Max fold change (NALM6, Leukemia): 5
- CalX2 (NAMALWA, Lymphoma): 5.9431 µM
- CalX5 (NAMALWA, Lymphoma): 10 µM
- Max fold change (NAMALWA, Lymphoma): 2.68
- CalX2 (OCUG1, Liver): 0.0848 µM
- CalX5 (OCUG1, Liver): 0.49 µM
- Max fold change (OCUG1, Liver): 5.49
- CalX2 (RAJI, Lymphoma): 2.5564 µM
- CalX5 (RAJI, Lymphoma): 4.07 µM
- Max fold change (RAJI, Lymphoma): 24.81
- CalX2 (RAMOSRA1, Lymphoma): 4.5496 µM
- CalX5 (RAMOSRA1, Lymphoma): 7.39 µM
- Max fold change (RAMOSRA1, Lymphoma): 25.1
- CalX2 (REC1, Lymphoma): 10 µM
- CalX5 (REC1, Lymphoma): 10 µM
- Max fold change (REC1, Lymphoma): 1.86
- CalX2 (RPMI6666, Lymphoma): 3.0419 µM
- CalX5 (RPMI6666, Lymphoma): 4.37 µM
- Max fold change (RPMI6666, Lymphoma): 26.35
- CalX2 (RS411, Leukemia): 3.8025 µM
- CalX5 (RS411, Leukemia): 8.4 µM
- Max fold change (RS411, Leukemia): 5.83
- CalX2 (SCABER, Bladder): 0.0086 µM
- CalX5 (SCABER, Bladder): 0.0506 µM
- Max fold change (SCABER, Bladder): 29.47
- CalX2 (SCC9, Head and Neck): 0.6679 µM
- CalX5 (SCC9, Head and Neck): 3.86 µM
- Max fold change (SCC9, Head and Neck): 9.58
- CalX2 (SKNEP1, Kidney): 10 µM
- CalX5 (SKNEP1, Kidney): 10 µM
- Max fold change (SKNEP1, Kidney): 1.15
- CalX2 (SNU423, Liver): 0.0909 µM
- CalX5 (SNU423, Liver): 1.65 µM
- Max fold change (SNU423, Liver): 7.32
- CalX2 (SR, Lymphoma): 1.2842 µM
- CalX5 (SR, Lymphoma): 3.07 µM
- Max fold change (SR, Lymphoma): 33.52
- CalX2 (ST486, Lymphoma): 4.2422 µM
- CalX5 (ST486, Lymphoma): 6.11 µM
- Max fold change (ST486, Lymphoma): 10.85
- CalX2 (SUDHL4, Lymphoma): 2.5668 µM
- CalX5 (SUDHL4, Lymphoma): 4.83 µM
- Max fold change (SUDHL4, Lymphoma): 10.75
- CalX2 (SUDHL5, Lymphoma): 1.6359 µM
- CalX5 (SUDHL5, Lymphoma): 4.54 µM
- Max fold change (SUDHL5, Lymphoma): 10.37
- CalX2 (SUDHL8, Lymphoma): 1.2344 µM
- CalX5 (SUDHL8, Lymphoma): 4.19 µM
- Max fold change (SUDHL8, Lymphoma): 10.79
- CalX2 (SUDHL10, Lymphoma): 3.611 µM
- CalX5 (SUDHL10, Lymphoma): 4.87 µM
- Max fold change (SUDHL10, Lymphoma): 11.63
- CalX2 (SUPT1, Lymphoma): 4.5476 µM
- CalX5 (SUPT1, Lymphoma): 9.21 µM
- Max fold change (SUPT1, Lymphoma): 5.76
- CalX2 (T24, Bladder): 4.5443 µM
- CalX5 (T24, Bladder): 10 µM
- Max fold change (T24, Bladder): 2.61
- CalX2 (TCCSUP, Bladder): 5.6435 µM
- CalX5 (TCCSUP, Bladder): 10 µM
- Max fold change (TCCSUP, Bladder): 3.67
- CalX2 (TF1, Leukemia): 0.006 µM
- CalX5 (TF1, Leukemia): 0.0296 µM
- Max fold change (TF1, Leukemia): 16.1
- CalX2 (THP1, Leukemia): 0.132 µM
- CalX5 (THP1, Leukemia): 3.9 µM
- Max fold change (THP1, Leukemia): 6.3
- CalX2 (TUR, Lymphoma): 0.6984 µM
- CalX5 (TUR, Lymphoma): 3.45 µM
- Max fold change (TUR, Lymphoma): 17.35
- CalX2 (UMUC3, Bladder): 2.7934 µM
- CalX5 (UMUC3, Bladder): 5.76 µM
- Max fold change (UMUC3, Bladder): 6.56
- Induction of apoptosis (variety of cancer cell lines): induce apoptosis

— patent publication US10576085B2, “Substituted aminopurine compounds, compositions thereof, and methods of treatment therewith” (Signal Pharmaceuticals, LLC, priority 2016, dated 2020)
